In patent US6858638B2, “Substituted indazoles, compositions containing them, method of production and use” (Aventis Pharma S.A., priority 2002, dated 2005):

Key:
Assay type in all cases: biochemical
human FAK = molecular target: T1, human FAK (Homo sapiens, UniProt Q05397); experiment: FAK autophosphorylation inhibition, time resolved fluorescence (HTRF) assay; conditions: 10 μM (values without asterisk); for inhibition at 10 µM: read-out: FAK % inhib at 10 μM
T1 construct: The complete cDNA of human FAK; made in house; host or cells: baculovirus expression system (vector pFastBac HTc)
T1 sequence (Q05397 whole entry): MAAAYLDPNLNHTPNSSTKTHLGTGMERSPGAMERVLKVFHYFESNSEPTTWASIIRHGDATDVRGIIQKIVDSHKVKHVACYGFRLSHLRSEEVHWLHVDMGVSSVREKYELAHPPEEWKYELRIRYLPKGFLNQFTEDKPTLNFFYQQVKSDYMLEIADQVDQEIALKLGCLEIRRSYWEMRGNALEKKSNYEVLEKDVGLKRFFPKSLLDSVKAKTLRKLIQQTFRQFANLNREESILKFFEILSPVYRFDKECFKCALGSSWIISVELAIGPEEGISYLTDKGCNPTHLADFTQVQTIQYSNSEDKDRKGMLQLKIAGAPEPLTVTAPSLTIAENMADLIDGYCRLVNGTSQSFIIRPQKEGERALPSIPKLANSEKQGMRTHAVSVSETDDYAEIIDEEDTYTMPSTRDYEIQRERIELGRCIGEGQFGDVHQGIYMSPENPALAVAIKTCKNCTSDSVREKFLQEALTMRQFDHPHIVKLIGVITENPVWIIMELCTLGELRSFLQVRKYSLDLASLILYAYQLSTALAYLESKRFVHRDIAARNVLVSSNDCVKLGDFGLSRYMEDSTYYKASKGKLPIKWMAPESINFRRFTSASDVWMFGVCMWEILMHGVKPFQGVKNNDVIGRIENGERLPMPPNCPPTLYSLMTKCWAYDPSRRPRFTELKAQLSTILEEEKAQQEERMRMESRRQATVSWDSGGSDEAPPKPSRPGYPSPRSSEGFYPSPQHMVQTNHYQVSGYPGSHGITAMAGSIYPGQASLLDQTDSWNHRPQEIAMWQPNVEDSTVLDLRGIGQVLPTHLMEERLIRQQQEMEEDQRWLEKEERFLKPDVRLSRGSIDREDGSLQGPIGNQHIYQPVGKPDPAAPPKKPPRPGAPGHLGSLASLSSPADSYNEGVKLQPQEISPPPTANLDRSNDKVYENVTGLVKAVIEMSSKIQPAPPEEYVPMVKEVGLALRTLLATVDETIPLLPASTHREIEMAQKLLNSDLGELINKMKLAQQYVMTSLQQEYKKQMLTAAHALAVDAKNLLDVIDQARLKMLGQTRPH
Method in brief: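 His-tagged full-length human FAK from baculovirus (6.6 µg/ml) self-phosphorylates with 15 µM ATP in HEPES pH 7.2, MgCl2, vanadate, 1 h at 37 °C. HTRF detection (Eu-anti-phosphotyrosine / XL665-anti-His), 665/620 nm ratio; % inhibition vs untreated control, duplicate mean.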

human KDR enzyme = molecular target: T2, human KDR enzyme (Homo sapiens, UniProt P35968); experiment: KDR substrate (PLCγ) phosphorylation, scintillation assay; conditions: 10 μM; for inhibition at 10 µM: read-out: KDR % inhib at 10 μM
T2 construct: The cytoplasmic domain of the human KDR enzyme; GST; made in house; host or cells: SF21 insect cells (baculovirus)
T2 sequence (P35968 786-1356 limits assumed): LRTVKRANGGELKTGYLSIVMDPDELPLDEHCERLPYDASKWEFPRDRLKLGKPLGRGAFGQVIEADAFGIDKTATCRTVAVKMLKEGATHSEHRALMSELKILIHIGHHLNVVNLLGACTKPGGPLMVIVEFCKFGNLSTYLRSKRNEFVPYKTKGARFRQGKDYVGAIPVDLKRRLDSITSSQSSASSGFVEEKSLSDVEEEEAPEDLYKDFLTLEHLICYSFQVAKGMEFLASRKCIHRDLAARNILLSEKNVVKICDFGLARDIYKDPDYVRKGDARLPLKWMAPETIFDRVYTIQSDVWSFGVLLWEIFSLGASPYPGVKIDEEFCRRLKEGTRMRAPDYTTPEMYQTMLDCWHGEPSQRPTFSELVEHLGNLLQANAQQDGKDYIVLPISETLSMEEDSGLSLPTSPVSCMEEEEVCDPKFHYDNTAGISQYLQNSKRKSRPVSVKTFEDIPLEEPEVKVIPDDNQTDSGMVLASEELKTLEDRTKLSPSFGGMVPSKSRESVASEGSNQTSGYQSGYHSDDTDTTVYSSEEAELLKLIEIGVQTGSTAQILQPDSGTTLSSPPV
Method in brief: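 GST-fused human KDR cytoplasmic domain from SF21 cells (about 60% pure, 100 ng) phosphorylated 2 μg of GST-PLCγ SH2-SH3 fragment. The trigger solution held γ33P-ATP with 2 μM cold ATP, in MOPS buffer pH 7.2 with Mg2+, Mn2+, vanadate and NaF. Reactions ran 1 h at 37 °C, were stopped with EDTA and counted by scintillation; results are % inhibition versus the no-compound control.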

Aurora2 kinase = molecular target: T3, Aurora2 kinase (Homo sapiens, UniProt O14965); experiment: Aurora2 kinase radioactivity scintillation assay using nickel chelate (NuMA substrate); conditions: 10 μM; for inhibition at 10 µM: read-out: Aurora2 % inhib at 10 μM
T3 construct: A complete recombinant Aurora2 enzyme; His tag (N); made in house; host or cells: E. coli
T3 sequence (O14965 1-403): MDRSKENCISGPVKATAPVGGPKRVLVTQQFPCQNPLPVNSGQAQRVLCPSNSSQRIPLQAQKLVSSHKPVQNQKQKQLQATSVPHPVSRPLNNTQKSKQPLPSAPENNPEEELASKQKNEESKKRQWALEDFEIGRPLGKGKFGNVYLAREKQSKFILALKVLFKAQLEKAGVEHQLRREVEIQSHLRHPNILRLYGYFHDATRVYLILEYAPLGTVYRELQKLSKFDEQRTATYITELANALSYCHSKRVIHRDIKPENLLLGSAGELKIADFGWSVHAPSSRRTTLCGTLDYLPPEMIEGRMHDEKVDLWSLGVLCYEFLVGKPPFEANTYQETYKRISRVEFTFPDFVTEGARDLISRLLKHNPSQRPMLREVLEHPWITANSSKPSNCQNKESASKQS
Method in brief: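 His-tagged full-length Aurora2 (0.02 μM, E. coli) phosphorylating His-tagged NuMA C-terminal fragment (0.5 μM) with 1 μM ATP plus [33P]-ATP, 30 min at 37 °C, pH 7.5 Tris buffer with MgCl2. Nickel-chelate scintillation read; percent inhibition versus no-compound control.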

[1] = molecular target: T4, human IGF1R cytoplasmic domain (Homo sapiens, UniProt P08069); experiment: IGF1R autophosphorylation inhibition, time resolved fluorescence (HTRF) assay; conditions: 10 μM; for inhibition at 10 µM: read-out: IGF1R % inhib at 10 μM
T4 construct: The human IGF1R cytoplasmic domain was cloned; made in house; host or cells: SF21 insect cells (baculovirus)
T4 sequence (P08069 960-1367 limits assumed): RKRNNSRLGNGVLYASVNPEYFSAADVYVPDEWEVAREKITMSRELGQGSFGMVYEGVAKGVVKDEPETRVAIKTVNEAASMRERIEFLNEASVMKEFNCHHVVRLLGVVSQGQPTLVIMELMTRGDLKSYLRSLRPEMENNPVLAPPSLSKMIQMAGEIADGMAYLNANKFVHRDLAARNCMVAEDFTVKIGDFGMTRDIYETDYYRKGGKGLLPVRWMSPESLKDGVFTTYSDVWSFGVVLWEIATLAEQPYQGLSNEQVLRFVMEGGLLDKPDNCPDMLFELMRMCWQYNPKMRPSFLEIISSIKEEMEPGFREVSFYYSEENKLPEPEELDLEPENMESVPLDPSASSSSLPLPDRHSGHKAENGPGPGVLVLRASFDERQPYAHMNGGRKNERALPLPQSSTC
Experimental: The inhibitory activity of the compounds on IGF1R is determined by measuring the inhibition of the autophosphorylation of the enzyme using a time resolved fluorescence (HTRF) assay.
The human IGF1R cytoplasmic domain was cloned, as a fusion with glutathione S-transferase (GST), into the baculovirus expression vector pFastBac-GST. The protein was expressed in SF21 cells and purified to approximately 80% homogeneity.
The kinase activity was determined by incubating the enzyme with various concentrations of test compound in a 50 mM Hepes buffer, pH 7.5, containing 5 mM MnCl2, 50 mM NaCl, 3% glycerol, 0.025% Tween […] of ATP. The enzyme reaction is stopped by adding 100 mM Hepes buffer, pH 7.0, containing 0.4 M KF, 133 mM EDTA and 0.1% BSA containing an anti-GST antibody labeled with XL665 and an antiphosphotyrosine antibody conjugated to europium cryptate (Eu-K). The characteristics of the two fluorophores, XL-665 and Eu-K, are available in G. Mathis et al., Anticancer Research, 1997, 17, pages 3011-3014. The transfer of energy from the excited europium cryptate to the acceptor XL665 is proportional to the degree of autophosphorylation of IGF1R. The long-lived signal specific for XL-665 is measured in a Victor analyzer plate counter (Perkin-elmer). The inhibition of the IGF1R autophosphorylation activity with compounds of the invention is expressed as percentage inhibition compared to a control whose activity is measured in the absence of test compound.

Structure (SMILES)	inhibition at 10 µM (human FAK) [%]	inhibition at 10 µM (human KDR enzyme) [%]	inhibition at 10 µM (Aurora2 kinase) [%]	inhibition at 10 µM [1] [%]	FAK % inhib at 10 μM (human FAK) [%]	KDR % inhib at 10 μM (human KDR enzyme) [%]	Aurora2 % inhib at 10 μM (Aurora2 kinase) [%]	IGF1R % inhib at 10 μM [1] [%]
CC(=O)Nc1n[nH]c2ccc(NS(=O)(=O)c3ccccc3S(C)(=O)=O)cc12 [Example 43, N-[5-(2-Methylsulfonylbenzenesulfonylamino)-1H-indazol-3-yl)-acetamide]	83	25	85	96				
O=C(NCc1ccc(S(=O)(=O)Nc2ccc3[nH]nc(-c4ccccc4)c3c2)s1)c1ccccc1 [Example 140, N-[5-(3-Phenyl-1H-indazol-5-ylsulfamoyl)thiophen-2-ylmethyl]benzamide]	6	70	71	40				
CN(C)c1cccc2c(S(=O)(=O)Nc3cccc(-c4n[nH]c5ccc(NS(=O)(=O)c6ccccc6S(C)(=O)=O)cc45)c3)cccc12 [Example 166, N-{3-[5-(2-Methanesulfonyl-benzenesulfonylamino)-1H-indazol-3-yl]phenyl}-5-dimethylaminonaphthalene-1-sulfonamide]	53	33	61	20				
CS(=O)(=O)c1ccccc1S(=O)(=O)Nc1ccc2[nH]nc(-c3ccc(O)cc3)c2c1 [Example 35, N-[3-(4-Hydroxyphenyl)-1H-indazol-5-yl]-2-methylsulfonylbenzenesulfonamide]					97	80	94	94
CS(=O)(=O)c1ccccc1S(=O)(=O)Nc1ccc2[nH]nc(-c3cccc(C(F)(F)F)c3)c2c1 [Example 175, N-[3-(3-Trifluoromethylphenyl)-1H-indazol-5-yl]-2-methanesulfonyl-benzenesulfonamide]	90	68	88	81				
O=S(=O)(Nc1ccc2[nH]nc(-c3ccccc3)c2c1)c1ccc2ccccc2c1 [Example 108, N-(3-Phenyl-1H-indazol-5-yl)-naphthalene-2-sulfonamide]	8	72	44	78				

Next, values leading:

inhibition at 10 µM (human FAK) [%]	inhibition at 10 µM (human KDR enzyme) [%]	inhibition at 10 µM (Aurora2 kinase) [%]	inhibition at 10 µM [1] [%]	FAK % inhib at 10 μM (human FAK) [%]	KDR % inhib at 10 μM (human KDR enzyme) [%]	Aurora2 % inhib at 10 μM (Aurora2 kinase) [%]	IGF1R % inhib at 10 μM [1] [%]	Structure (SMILES)
95	21	79	45					CS(=O)(=O)c1ccccc1S(=O)(=O)Nc1ccc2[nH]nc(-c3cc(Br)cc(Br)c3)c2c1 [Example 211, N-[3-(3,5-Dibromophenyl)-1H-indazol-5-yl]-2-methanesulfonyl-benzenesulfonamide]
78	57	100	67					O=S(=O)(Nc1ccc2[nH]nc(-c3ccccc3)c2c1)c1cccc2nonc12 [Example 149, N-(3-Phenyl-1H-indazol-5-yl)-benzo[1,2,5]oxadiazole-4-sulfonamide]
95	99	100	99					O=S(=O)(Nc1ccc2[nH]nc(-c3cc4ccccc4[nH]3)c2c1)c1cccc(F)c1 [Example 85, 3-Fluoro-N-[3-(1H-indol-2-yl)-1H-indazol-5-yl]benzenesulfonamide]
66	70	88	83					CS(=O)(=O)c1ccccc1S(=O)(=O)Nc1ccc2[nH]nc(-c3ccc(C(F)(F)F)cc3)c2c1 [Example 176, N-[3-(4-Trifluoromethylphenyl)-1H-indazol-5-yl]-2-methanesulfonyl-benzenesulfonamide]
44	39	58	41					CS(=O)(=O)c1ccccc1S(=O)(=O)Nc1ccc2[nH]nc(-c3ccc(OCc4ccccc4)c(F)c3)c2c1 [Example 194, N-[3-(4-Benzyloxy-3-fluoro-phenyl)-1H-indazol-5-yl]-2-methanesulfonyl-benzenesulfonamide]
